Structures are written as SMILES. Marks after values point to notes of the source that are not given here.

Data set [1] relates to gastric mucosa of rats treated with 80% Ethanol. Description: Histopathological evaluation of gastric tissue. Type of data set: in vivo, Albino Wistar rats. The following applies: 50 mg/kg; FIG. 15B-15F. The protocol:
Histopathological evaluation: Gastric tissue samples were fixed in neutral buffered formalin for 24 hours. Sections of gastric tissue were histopathologically examined to study the ulcerogenic and/or anti-ulcerogenic activity of compounds (N-3, N-8, N-11, and N-15). The tissues were fixed in 10% buffered formalin and processed using a VIP tissue processor. The processed tissues were embedded in paraffin blocks and sections about […] thick were cut using an American optical rotary microtome. These sections were stained with haematoxylin and eosin using routine procedures. The slides were examined microscopically for pathomorphological changes such as congestion, hemorrhage, edema, and erosions using an arbitrary scale for severity assessment of these changes (FIGS. 3-14).

Data set [2] in a line: in vivo. The conditions noted are these: mouse. The text has this:
(§1) At the end of the study period, expired animals were counted for the calculation of LD50. The following arithmetic method from Karber (Arch. Exptl. Pathol. Pharmakol, […], 162, 480-483) was used for the determination of LD50: LD50=LD100−Σ×(a×b)/n
(§2) wherein n=total number of animals in a group; a=the difference between two successive doses of administered extract/substance; b=the average number of dead animals in two successive doses; and LD100=lethal dose causing the 100% death of all test animals.
(§3) Table 8 provides the LD50 values of the compounds determined by the Karber method.

The subject of data set [3] is mouse. Description: in vivo. The following applies: 24 h.
Excerpt: as §1, §2, §3

Data set [4] concerns Indomethacin-induced gastric mucosal lesions. The data set is described as follows: Gastric lesions induced by Indomethacin. Type of data set: in vivo, Albino Wistar rats. Set-up: scale not given here. The following applies: i.p, 30 min before Indomethacin 30 mg/kg, mean ± SE. The text has this:
Albino Wistar rats of either sex, approximately the same age, weighing 150 to 200 g and fed on a diet of standard chow were used in this study. They were randomly divided into experimental groups of six rats each. […] The rats were sacrificed, and the stomachs removed and opened along the greater curvature, After washing with saline, the gastric lesions were quantified by a person unaware of the treatments. The animal study protocol was approved by the Research and Ethics Committee of the Experimental Animal Care Society, College of Pharmacy, King Saud University, Riyadh, Saudi Arabia.
Gastric lesions induced by Indomethacin: Indomethacin was suspended in 1.0% carboxymethylcellulose (CMC) in water (6 mg/mL) and administered orally to the 36 hour fasted rats at a dose of 30 mg/kg body weight. Control rats were treated similarly with an equivalent amount of vehicle. […] The animals were sacrificed 6 hours after treatment. The stomachs were excised, rinsed with normal saline and examined for ulceration. Table 3 provides the effect of compounds on Indomethacin-induced gastric mucosal lesions (mean±SE).

For data set [5], the system named is gastric wall mucus in stomach tissue, change induced by 80% ethanol. The data set is described as follows: Determination of gastric wall mucus (GWM). It counts as in vivo, Albino Wistar rats. The following applies: i.p, 80% ethanol-treated rats, mean ± SE. The protocol:
(§4) Albino Wistar rats of either sex, approximately the same age, weighing 150 to 200 g and fed on a diet of standard chow were used in this study. They were randomly divided into experimental groups of six rats each. Compounds (N-1 to N-18) 12.5, 25, and 50 mg/kg were given orally in the anti-ulcer studies and intraperitoneally for gastric secretion evaluation. The rats were sacrificed, and the stomachs removed and opened along the greater curvature, After washing with saline, the gastric lesions were quantified by a person unaware of the treatments. The animal study protocol was approved by the Research and Ethics Committee of the Experimental Animal Care Society, College of Pharmacy, King Saud University, Riyadh, Saudi Arabia.
Determination of gastric wall mucus (GWM): Gastric wall mucus was determined according to the modified procedure. The glandular segment of the stomach was separated from the rumen of the stomach, weighed, and transferred immediately to 10 mL of 0.1% w/v Alcian blue solution (in […] sucrose solution buffered with […] sodium acetate at pH 5. Tissue was stained for 2 hours in Alcian blue, and excess dye was removed by two successive rinses with 10 mL of […] sucrose, firstly after 15 minutes and then after 45 minutes. Dye complexed with the gastric wall mucus was extracted with 10 ml of […] magnesium chloride which was intermittently shaken for 1 minute at 30 minute intervals for 2 hours. Four milliliters of blue extract were then vigorously shaken with an equal volume of diethyl ether. The resulting emulsion was centrifuged at 4000 r/min for 10 minutes and the absorbance of the aqueous layer was recorded at 580 nm. The quantity of Alcian blue extracted per gram of wet glandular tissue was then calculated. Table 6 provides the effect of compounds on the change in gastric wall mucus in stomach tissue induced by 80% ethanol (mean±SE).

Data set [6] has as its system total protein in stomach tissue, induced by 80% ethanol. The data set is described as follows: Total protein in stomach tissue. It counts as in vivo, Albino Wistar rats. The following applies: mean ± SE.
Data set [7] has as its system malondialdehyde in stomach tissue, induced by 80% ethanol. Description: Determination of malondialdehyde (MDA). Type of data set: in vivo, Albino Wistar rats. The conditions noted are these: mean ± SE. The protocol: as §4
Determination of malondialdehyde (MDA): The animals were sacrificed 1 hour after ethanol administration. The stomachs were removed and each was homogenized in 0.15 mol/L KCl (at 4° C.) in a Potter-Elvehjem type C homogenizer to give a 10% w/v homogenate. Aliquots of homogenate 1 mL in volume were incubated at 37° C. for 3 hours in a metabolic shaker. Then 1 mL of 10% aqueous TCA was added and mixed. The mixture was then centrifuged at 800 g for 10 minutes. One milliliter of the supernatant was removed and mixed with 1 mL of 0.67% w/v thiobarbituric acid in water and placed in a boiling water bath for 10 minutes. The mixture was cooled and diluted with 1 mL distilled water. The absorbance of the solution was then read at 535 nm. The content of malondialdehyde (nmol/g wet tissue) (index of the magnitude of lipid peroxidation) was then calculated, by reference to a standard curve of malondialdehyde solution. Table 7 provides the effect of compounds on the levels of MDA, NP_SH, and total protein in stomach tissue induced by 80% ethanol (mean±SE).

Where [8] appears, read: dose 12.5, 80% ethanol-treated rats.
[9] abbreviates: dose 25, 80% ethanol-treated rats.
Setting [10] is: dose 50, 80% ethanol-treated rats.

`O=C1NC=C(C(=O)c2ccc(N3CCCCC3)cc2)C(c2ccc([N+](=O)[O-])cc2)N1` (stereo not drawn) [Compound N-3, 4-(4-Nitrophenyl)-5-[4-(piperidin-1-yl)benzoyl]-3,4-dihyropyrimidin-2(1H)-one]: in data set [1], the “Gastric section, effect on gastric mucosa (histology)” value (“Gastric section, effect … (histology)” for short) is reported as “intact mucosa with mild ulceration”. The same molecule gave an LD50 at 24 h in data set [2] of 125 mg/kg. Also, the “Dead (of 10 animals)” value in data set [3] (5 mg/kg) is given as 0; in data set [3] (25 mg/kg), 0; in data set [3] (50 mg/kg), 2; in data set [3] (100 mg/kg), 5; in data set [3] (200 mg/kg) it was 8; in data set [3] (300 mg/kg), 10. Moreover, the figures for the “Ulcer Index, indomethacin-induced gastric mucosal lesions” value (“Ulcer Index” for short) in data set [4] (12.5 mg/kg), in data set [4] (25 mg/kg) and in data set [4] (50 mg/kg) were 29.83 ± 1.66, 20.50 ± 1.52 and 12.66 ± 1.28, respectively. Moreover, the “Gastric Wall Mucus” value in data set [5] (12.5 mg/kg) was 242.08 ± 4.03*^b μg/g; in data set [5] (25 mg/kg), 241.66 ± 6.91**^b μg/g; in data set [5] (50 mg/kg), 256.18 ± 8.39***^b μg/g. The “Total Protein” value is given as 58.68 ± 3.19*^b g/L in data set [6] (setting [8]), 74.65 ± 3.79*^b g/L in data set [6] (setting [9]) and 95.80 ± 1.51***^b g/L in data set [6] (setting [10]). For the same molecule, the MDA is 4.47 ± 0.44***^b nmol/g in data set [7] (setting [8]), 3.07 ± 0.16***^b nmol/g in data set [7] (setting [9]) and 1.95 ± 0.05***^b nmol/g in data set [7] (setting [10]).
In the case of `COc1ccccc1C1NC(=O)NC=C1C(=O)c1ccc(N2CCCCC2)cc1` (stereo not drawn) [Compound N-8, 4-(2-Methoxyphenyl)-5-[4-(piperidin-1-yl)benzoyl]-3,4-dihydropyrimidin-2(1H)-one], in data set [1], the “Gastric section, effect … (histology)” value is “intact normal mucosa”. In data set [2], this molecule yielded a 50% lethal dose (LD50) at 24 h of 55.5 mg/kg. Further, the “Dead (of 10 animals)” value in data set [3] (5 mg/kg) was found to be 0; in data set [3] (25 mg/kg) it was 2; in data set [3] (50 mg/kg), 6; in data set [3] (100 mg/kg), 9; in data set [3] (200 mg/kg) it was 10; in data set [3] (300 mg/kg), 10. In addition, the figures for the “Ulcer Index” value in data set [4] (12.5 mg/kg), in data set [4] (25 mg/kg) and in data set [4] (50 mg/kg) were 33.00 ± 1.52, 29.50 ± 1.58 and 28.66 ± 1.45, respectively. Also, the “Gastric Wall Mucus” value in data set [5] (12.5 mg/kg) was 206.39 ± 7.18^b μg/g; in data set [5] (25 mg/kg), 212.00 ± 6.40^b μg/g; in data set [5] (50 mg/kg) it was 244.65 ± 5.36**^b μg/g. For the same molecule, the entries for the “Total Protein” value in data set [6] (setting [8]), in data set [6] (setting [9]) and in data set [6] (setting [10]) were 45.90 ± 1.14^b g/L, 55.88 ± 1.71*^b g/L and 66.26 ± 1.47 g/L, respectively. In addition, the MDA in data set [7] (setting [8]) is 6.63 ± 0.26^b nmol/g; in data set [7] (setting [9]), 4.83 ± 0.24***^b nmol/g; in data set [7] (setting [10]) it was 3.75 ± 0.07***^b nmol/g.
For the molecule `CN(C)c1ccc(C2NC(=O)NC=C2C(=O)c2ccc(N3CCCCC3)cc2)cc1` (stereo not drawn) [Compound N-11, 4-(4-Dimethylaminophenyl)-5-[4-(piperidin-1-yl)benzoyl]-3,4-dihydropyrimidin-2(1H)-one], the “Gastric section, effect … (histology)” value in data set [1] is “intact normal mucosa”. The results for the “Ulcer Index” value in data set [4] (12.5 mg/kg), in data set [4] (25 mg/kg) and in data set [4] (50 mg/kg) were 33.00 ± 1.03, 30.66 ± 1.28 and 28.31 ± 1.78, respectively. Also, the “Gastric Wall Mucus” value is 192.87 ± 12.84^b μg/g in data set [5] (12.5 mg/kg), 224.88 ± 4.64*^b μg/g in data set [5] (25 mg/kg) and 217.36 ± 3.31**^b μg/g in data set [5] (50 mg/kg). For the same molecule, the figures for the “Total Protein” value in data set [6] (setting [8]), in data set [6] (setting [9]) and in data set [6] (setting [10]) were 53.89 ± 1.48*^b g/L, 64.27 ± 2.08***^b g/L and 72.25 ± 1.43***^b g/L, respectively. In addition, the MDA was 5.16 ± 0.22***^b nmol/g in data set [7] (setting [8]), 3.99 ± 0.17***^b nmol/g in data set [7] (setting [9]) and 3.36 ± 0.08***^b nmol/g in data set [7] (setting [10]).
For `COc1ccc(C2NC(=O)NC=C2C(=O)c2ccc(N3CCCCC3)cc2)c(OC)c1OC` (stereo not drawn) [Compound N-15, 4-(2,3,4-Trimethoxyphenyl)-5-[4-(piperidin-1-yl)benzoyl]-3,4-dihydropyrimidin-2(1H)-one], in data set [1], the “Gastric section, effect … (histology)” value was “intact normal mucosa”. The LD50 at 24 h in data set [2] was 116 mg/kg. In addition, the “Dead (of 10 animals)” value in data set [3] (5 mg/kg) was 0; in data set [3] (25 mg/kg), 1; in data set [3] (50 mg/kg), 3; in data set [3] (100 mg/kg), 4; in data set [3] (200 mg/kg), 9; in data set [3] (300 mg/kg), 10. Moreover, the figures for the “Ulcer Index” value in data set [4] (12.5 mg/kg) and in data set [4] (50 mg/kg) were 26.33 ± 1.30 and 14.50 ± 1.64, respectively. The “Gastric Wall Mucus” value in data set [5] (12.5 mg/kg) is 231.78 ± 4.77*^b μg/g; in data set [5] (25 mg/kg), 248.09 ± 7.69**^b μg/g; in data set [5] (50 mg/kg) it was 275.32 ± 5.37***^b μg/g. For the same molecule, the “Total Protein” value in data set [6] (setting [8]) is given as 71.45 ± 1.43*^b g/L; in data set [6] (setting [9]) it was 81.43 ± 3.65***^b g/L; in data set [6] (setting [10]), 96.60 ± 1.18***^b g/L. Besides, the results for the MDA in data set [7] (setting [8]), in data set [7] (setting [9]) and in data set [7] (setting [10]) were 3.51 ± 0.08***^b nmol/g, 2.72 ± 0.10***^b nmol/g and 1.90 ± 0.06***^b nmol/g, respectively.

For orientation: LD50 means the dose at which mortality reaches 50%.

These data come from patent US9856232B1, “Dihydropyrimidinone derivatives” (KING SAUD UNIVERSITY, priority 2017, dated 2018).
